Data from US20020106375A1, “Non-cytolytic soluble factor from activated-expanded CD4 cells” (priority 2000, published 2002).
Counter-ions that a name gives are not always drawn. Like-named read-outs stand apart in the source and are kept apart here.

What was measured:
[1] = test system: SKBR3 cells; assay: Tumor proliferation assay (MTS), SKBR3; assay type: cell-based, human; details: tamoxifen 10 μg/ml; for inhibition at 10 µg/mL: Homo sapiens, SKBR3, Factor C 5% v/v, read-out: Fractional Inhibition
Protocol: (§1) MTS was added for the final 5 hours of culture as recommended by the manufacturer (CeiTiter 96 AQueous, Non-Radioactive Cell Proliferation Assay; Promega, Madison, Wis.), and the absorbence was read in a DigiScan reader (ASYS Hitech, Austria) at A492 nm. Samples were evaluated in triplicate. Tumor cells cultured in maintenance media with no addition and the maintenance media alone were used as controls. Fractional inhibition was determined by the formula set forth above.
The combined effects of the drugs and supernatants were analyzed by the median effect method of Chou and Talalay using CalcuSyn software (see above). […] According to this method, “synergy” is indicated by a Cl of less than 1, “addition” by a Cl equal to 1, and “antagonism” by a Cl greater than 1. A Cl of less than 0.3 is considered to represent “strong synergism”, and a Cl greater than 3.3 is considered to represent “strong antagonism”.

[2] = test system: Fas (CD95) of SKBR3 cells; assay: Fas (CD95) expression by flow cytometry, SKBR3; assay type: cell-based, human; details: tamoxifen 10 μg/ml
Protocol: Flow cytometry was used to assess Fas expression and cell cycle. Cells were reacted sequentially with mAb to Fas (CD95) and then with a fluorescenated goat anti-mouse antibody, according to the recommendations of the manufacturer. Percent fluorescent cells and fluorescence intensity was determined using an Epics Elite cytofluorograph (Coulter Corp.). All samples were compared to their isotype-matched controls. Analysis of cell cycle was performed using propidium iodide on a Coulter EPICS Elite flow cytometer equipped with a 488 nm, 15 mW, air-cooled Argon laser. […] Optical laser alignment calibration of the flow cytometer was performed using Coulter's DNA-Check EPICS alignment fluorosphere beads with coefficient of variations routinely less than 2%. PI fluorescent light emission was collected through a 610 nm, long-pass transmission filter. PI signal was measured in linear mode and extended analysis of DNA content was performed using ModFit LT program, as described above. Data are presented as the percentage of cells in G1-G0, S, and G2-M.

[3] = test system: caspase-3; assay: Caspase-3 activity, SKBR3; assay type: cell-based, human; details: Factor C 5% v/v, tamoxifen 10 μg/ml
Protocol: (§2) Caspase-3 and caspase-8 activities were determined using a calorimetric assay kit (R&D Systems, Inc., Minneapolis, Minn.). Assays were conducted according to the instructions of the manufacturer. Protein kinase C, Prote3in kinase c alpha and delta levels were determined by immunoprecipitation and Western blotting, as previously described. Hofmeister, et al., “Clustered CD20 induced apoptosis: src-family kinase, the proximal regulator of tyrosine phosphorylation, calcium influx, and caspase 3-dependent apoptosis”, Blood Cells Mol Dis, 26:133-43, 2000.

[4] = test system: caspase-8; assay: Caspase-8 activity, SKBR3; assay type: cell-based, human; details: Factor C 5% v/v, tamoxifen 10 μg/ml
Protocol: as §2

[5] = test system: FasR (CD95) of LS513 cells; assay: FasR (CD95) expression by flow cytometry, LS513; assay type: cell-based, human
Protocol: (§3) Flow cytometry was used to assess FasR expression and cell cycle. Analysis of cell cycle was performed using propidium iodide on a Coulter EPICS Elite flow cytometer (Coulter Corporation) equipped with a 488 nm, 15 mW, air-cooled Argon laser. […] Optical laser alignment calibration of the flow cytometer was performed using Coulter's DNA-Check EPICS alignment fluorosphere beads with coefficient of variations routinely less than 2%. PI fluorescent light emission was collected through a 610 nm, long-pass transmission filter. PI signal was measured in linear mode and extended analysis of DNA content was performed using the ModFit LT program (Verity Software House, Inc., Topsham, Me.). Data are presented as the percentage of cells in G1-G0, S and G2-M.

[6] = test system: FasR (CD95) of SW480 cells; assay: FasR (CD95) expression by flow cytometry, SW480; assay type: cell-based, human
Protocol: as §3

[7] = test system: caspase-3; assay: Caspase-3 activity, colorimetric, colorectal cancer cells; assay type: cell-based, human
Protocol: (§4) Caspase-3 and caspase-8 activities were determined using a calorimetric assay kit (R&D Systems, Inc., Minneapolis, Minn.). Assays were conducted according to the instructions of the manufacturer.

[8] = test system: caspase-8; assay: Caspase-8 activity, colorimetric, colorectal cancer cells; assay type: cell-based, human
Protocol: as §4

[9] = biological target: T1, topoisomerase I-DNA complexes (Homo sapiens, UniProt P11387); assay: Topoisomerase I-DNA complexes in LS513 cells; assay type: cell-based; details: factor 25%, 50 μM irinotecan
T1 construct: endogenous in cells; host or cells: LS513
T1 sequence (P11387 1-765): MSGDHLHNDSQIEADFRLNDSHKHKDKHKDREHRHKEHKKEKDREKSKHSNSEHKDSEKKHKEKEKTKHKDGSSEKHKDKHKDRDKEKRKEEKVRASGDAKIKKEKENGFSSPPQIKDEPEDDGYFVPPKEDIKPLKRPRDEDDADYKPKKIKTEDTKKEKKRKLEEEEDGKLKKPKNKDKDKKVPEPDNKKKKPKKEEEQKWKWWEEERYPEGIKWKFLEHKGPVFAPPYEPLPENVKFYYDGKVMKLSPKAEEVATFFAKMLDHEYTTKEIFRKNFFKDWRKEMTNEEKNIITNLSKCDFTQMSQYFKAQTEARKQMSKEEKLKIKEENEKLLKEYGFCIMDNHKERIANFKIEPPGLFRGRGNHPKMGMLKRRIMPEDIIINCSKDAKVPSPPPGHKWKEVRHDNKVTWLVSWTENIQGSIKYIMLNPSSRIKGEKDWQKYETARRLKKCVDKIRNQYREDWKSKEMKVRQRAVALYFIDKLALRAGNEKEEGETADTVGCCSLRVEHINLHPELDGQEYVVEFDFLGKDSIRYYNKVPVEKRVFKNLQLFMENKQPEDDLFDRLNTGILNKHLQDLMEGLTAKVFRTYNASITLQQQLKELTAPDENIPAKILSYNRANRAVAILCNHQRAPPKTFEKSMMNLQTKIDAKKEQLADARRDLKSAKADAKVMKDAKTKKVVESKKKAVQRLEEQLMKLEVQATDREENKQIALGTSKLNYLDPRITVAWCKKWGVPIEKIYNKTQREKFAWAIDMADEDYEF
Protocol: Three different concentrations of DNA (recovered from the DNA peak fractions of each CsCI gradient) were spotted onto the membrane.
The blot was placed on a phosphorimager and signal strengths from the 2 μg slots were quantified. Based upon comparison to a known standard of purified topoisomerase I on the same blot, the signals are expressed as ng or topoisomerase I per ml of DNA=no additions (i.e., untreated). The data are quantified in Table 22 and FIG. 35.

[10] = test system: LS513 cells; assay: Proliferation assay with median effect analysis, LS513; assay type: cell-based; details: Homo sapiens, LS-513, topotecan 1 μg/ml, supernatant 25% v/v, antibodies 10 μg/ml, read-out: Fractional Inhibition
Protocol: as §1, with “(CelTiter,” for “(CeiTiter”, “AQueous” for “AQueous,”, “Assay,” for “Assay;”, “following formula: [formula]” for “formula set forth above.”
According to this method, “synergy” is indicated by a Cl of less than 1, “addition” by a Cl equal to 1, and “antagonism” by a Cl greater than 1. A Cl of less than 0.3 is considered to represent “strong synergism”, and a Cl greater than 3.3 is considered to represent “strong antagonism”.

[11] = biological target: soluble Fas ligand (sFasL) in supernatants of anti-CD3/IL-2 activated-expanded T cells (human) (UniProt P48023); assay: cell-based or functional assay
[12] = test system: SW480 cells; assay: Proliferation assay (MTS), SW480; assay type: cell-based, human; details: Table 13; supernatant 25% v/v; IFN-γ, TNF-α 1,000 U/ml; antibodies 10 μg/ml
Protocol: as §1, with “Unstimulated and stimulated supernatants, as well as the expansion media, were added at a range of volumes to SW480, LS174T, or Jurkat cells or cultured in their maintenance media in 24-well plates for 96 hours. MTS” for “MTS”, “(CelTiter,” for “(CeiTiter”, “AQueous” for “AQueous,”, “Assay,” for “Assay;”, “following formula: [formula]” for “formula set forth above.”

Sequence of soluble Fas ligand (sFasL) in supernatants of anti-CD3/IL-2 activated-expanded T cells (human) (P48023 130-281 limits assumed): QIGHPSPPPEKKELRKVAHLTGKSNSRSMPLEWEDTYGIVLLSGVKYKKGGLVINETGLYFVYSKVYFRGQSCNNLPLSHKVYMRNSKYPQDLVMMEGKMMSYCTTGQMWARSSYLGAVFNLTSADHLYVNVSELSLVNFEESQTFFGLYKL

## CC/C(=C(\c1ccccc1)c1ccc(OCCN(C)C)cc1)c1ccccc1 [Tamoxifen]
[1]; SK-BR-3, Table 28, blocking antibody 50 μg/ml
  inhibition at 10 µg/mL: 32%
[1]; SK-BR-3, Table 29
  inhibition at 10 µg/mL: 44.5%
[1]; Table 27, SKBR3 cells
  F1: 0.28
[2]; Table 27, SKBR3 cells
  CD95: 11
[2]; Table 29, SKBR3, CD95 mean cell fluorescence, Factor C 5% v/v
  CD 95 Cells: 1.8
[3]
  Caspase-3: 0.12
[4]
  Caspase-8: 0.01

## CCc1c2c(nc3ccc(OC(=O)N4CCC(N5CCCCC5)CC4)cc13)-c1cc3c(c(=O)n1C2)COC(=O)[C@]3(O)CC [CPT, Irinotecan HCl]
[5]
  CD95: 13
[6]
  CD95: 13
[7]; LS513 Cells
  Caspase-3: 0.12
[7]; SW480 Cells
  Caspase-3: 0.12
[8]; LS513 Cells
  Caspase-8: 0.11
[8]; SW480 Cells
  Caspase-8: 0.11
[9]; Time 1 hrs
  topoisomerase I-DNA complexes signal: 3.93 ng or topoisomerase I per ml of DNA
[9]; Time 12 hrs
  topoisomerase I-DNA complexes signal: 4.83 ng or topoisomerase I per ml of DNA
[9]; Time 48 hrs
  topoisomerase I-DNA complexes signal: 5.37 ng or topoisomerase I per ml of DNA

## CC[C@@]1(O)C(=O)OCc2c1cc1n(c2=O)Cc2cc3c(CN(C)C)c(O)ccc3nc2-1 [TPT, Topotecan]
[10]
  inhibition at 1 µg/mL: 51%

B1: anti-FasL antibody NOK1 (antibody, from another filing, V domains shown)
VH: VQLQESGPELVKPGASVKISCKASGYAFSSSWMNWVKQRPGKGLEWIGRIYPGDGDTNDNGKFKGKATLTADKSSSTAYMQLSSLTSEDSAVYFCARSYYYDGSPWFTYWGQGTTVTVSS
VL: DIQMTQSPSSLSASLGDRVTISCRASQDISNYLNWYQQKPDGTVKLLIYYTSRLHSGVPSRFSGSGSGTDYSLTISNLEPEDIATYFCQQYSEFPWTFGGGTKLEIKR
[11]
  Fractional Inhibition - Run 1, Supernatant + anti-FasL (supernatant alone 0.36): 0.15
  Fractional Inhibition - Run 2, Supernatant + anti-FasL (supernatant alone 0.41): 0.21
  Fractional Inhibition, Sup + TPT + anti-FasL on LS513 cells (Sup + TPT alone 0.84): 0.69

B2: IFN: human recombinant IFN-γ (protein, UniProt P01579 24-161, looked up)
Interferon gamma: QDPYVKEAENLKKYFNAGHSDVADNGTLFLGILKNWKEESDRKIMQSQIVSFYFKLFKNFKDDQSIQKSVETIKEDMNVKFFNSNKKKRDDFEKLTNYSVTDLNVQRKAIHELIQVMAELSPAAKTGKRKRSQMLFRG
[12]
  Fractional Inhibition - Run 1: 0.01
  Fractional Inhibition - Run 2: 0.011
